Experimental data published in patent publication US12653814B2, “Benzimidazolone-based cinnamamide derivative as TRPV1 antagonist and pharmaceutical composition for treatment or prevention of pain containing same as active ingredient” (JMACKEM CO., LTD, priority 2020, dated 2026).

How the values were obtained:
human TRPV1 (hTRPV1) [1] = target: T1, human TRPV1 (hTRPV1) (Homo sapiens, UniProt Q8NER1); assay: Ca2+ influx assay, antagonism against capsaicin in hTRPV1-HEK recombinant cells; type: cell-based; settings: capsaicin 10 nM as activator, Fluo4-NW fluorescence, read-out: hTRPV1 IC50 [cap]
T1 construct: host or cells: HEK (PrecisION hTRPV1-HEK recombinant cell line)

human TRPV1 (hTRPV1) [2] = target: T1, human TRPV1 (hTRPV1); assay: Evaluation of human pH inhibitory activity in hTRPV1-HEK recombinant cells; type: cell-based; settings: inhibition of activation at final pH 6.0, test substance 3 μM
Method: Evaluation of Human pH Inhibitory Activity
PrecisION™ hTRPV1-HEK recombinant cells (CYL3063) were purchased from Millipore and used. After culturing the above cells under the conditions of 37° C. and 5% CO2, the cells were inoculated in a 96-well plate at the density of 5×10^4 cells/well, followed by culture for 16 hours. Then, the medium was removed and 100 uL of a staining solution was put into each well, followed by culture for 30 minutes under the conditions of 37° C. and 5% CO2. After 30 minutes, all of the existing staining solution was removed and replaced with 100 uL of HBSS. Thereafter, the cells were acclimatized to room temperature for 15 minutes, and the test substances (example compounds and comparative example compounds of the present invention) were added to each well, followed by culture at room temperature for 15 minutes. Then, the final pH was adjusted to 6.0 using MES, and fluorescence was measured (ex485/em535). In the pH assay, the efficacy of the drug was evaluated using BCTC as a TRPV1 antagonist.

[3] = Evaluation of bioavailability (BA), rat PK after intravenous and oral administration; type: in vivo, SD rats; settings: male, SD, plasma, 10 mg/kg, read-out: Bioavailability F (%)
Method: SD rats (Coatec, Hana Trading Co., Ltd., 7-8 weeks old, male, n=4, 250-300 g) were used for the experiment. The rats were bred in a small animal breeding room (experimental animal center) set at a temperature of 22±2° C., a relative humidity of 50±5%, an illumination time of 12 hours (08:00˜20:00), and an illumination intensity of 150 to 300 lux. Feed was fed freely during the entire test period, and RO water was provided freely. Before oral administration of the test substances (example compounds and comparative example compounds of the present invention), the rats were fasted for 16 hours.
The dosage of the example compounds and comparative example compounds of the present invention was 5 mg/kg when administered intravenously and 10 mg/kg when administered orally. For intravenous administration, a clear solution in which 10% DMSO, 10% Cremophor EL, and 80% PEG400 were dissolved was administered. For oral administration, a solution or suspension in which 10% DMSO and 10% Cremophor EL were dissolved in 80% DDW was administered.
After the intravenous or oral administration, blood was collected at 5 minutes, 15 minutes, 30 minutes, 1 hour, 2 hours, 4 hours, 6 hours and 8 hours, and the concentrations of the test substances (example compounds and comparative example compounds of the present invention) in plasma were measured by LC-MS/MS.
After adding 80 μl of acetonitrile (including internal standard) to 20 μl of plasma, centrifugation was performed for 5 minutes at 15,000 rpm at 4° C. with vortexing. The supernatant obtained after the centrifugation was analyzed by LC-MS/MS. For HPLC, Nexera XR system (Shimadzu, Japan) was used, and for mass spectrometer, TSQ vantage triple quadruple (Thermo, USA) was used.
The PK parameters were calculated with a non-compartmental analysis model using Phoenix WinNonlin 6.4 version (Pharsight, USA) program.
AUC was calculated using the linear trapezoidal rule in the rising plasma-level phase and the logarithmic trapezoidal rule in the declining phase.

[4] = even in the absence of partial agonism; cited from earlier work
[5] = during clinical trials; cited from earlier work

T1 sequence (Q8NER1 whole entry): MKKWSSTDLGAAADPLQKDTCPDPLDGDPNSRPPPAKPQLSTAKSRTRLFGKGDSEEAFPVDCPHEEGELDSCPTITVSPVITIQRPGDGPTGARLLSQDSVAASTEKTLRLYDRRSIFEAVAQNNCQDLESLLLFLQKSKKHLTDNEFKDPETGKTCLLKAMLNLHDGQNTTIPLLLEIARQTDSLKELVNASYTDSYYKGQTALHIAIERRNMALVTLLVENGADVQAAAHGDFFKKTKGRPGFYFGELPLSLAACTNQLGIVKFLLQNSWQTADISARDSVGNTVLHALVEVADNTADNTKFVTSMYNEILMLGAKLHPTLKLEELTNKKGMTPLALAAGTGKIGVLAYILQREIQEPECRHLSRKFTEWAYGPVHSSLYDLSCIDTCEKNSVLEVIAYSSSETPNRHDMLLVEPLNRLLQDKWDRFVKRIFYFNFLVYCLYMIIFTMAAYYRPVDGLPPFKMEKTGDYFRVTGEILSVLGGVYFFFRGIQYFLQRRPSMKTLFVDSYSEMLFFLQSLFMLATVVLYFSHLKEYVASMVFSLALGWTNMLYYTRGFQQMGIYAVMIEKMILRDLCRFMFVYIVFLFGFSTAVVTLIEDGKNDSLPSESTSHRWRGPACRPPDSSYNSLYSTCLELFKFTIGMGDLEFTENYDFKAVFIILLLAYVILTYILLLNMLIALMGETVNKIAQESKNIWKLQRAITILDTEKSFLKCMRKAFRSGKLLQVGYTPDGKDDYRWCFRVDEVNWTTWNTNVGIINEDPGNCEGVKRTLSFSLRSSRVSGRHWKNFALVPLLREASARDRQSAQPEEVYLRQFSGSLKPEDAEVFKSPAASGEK

SMILES | IC50 (human TRPV1 (hTRPV1) [1]) [µM] | hTRPV1 pH (%, 3 μM) (human TRPV1 (hTRPV1) [2]) [%] | bioavailability [3] [%] | effect on body temperature [4] | subject's body temperature rose to [5] [°C]
O=C(/C=C/c1ccc(C(F)(F)F)nc1N1CCCC1)Nc1cccc2[nH]c(=O)[nH]c12 [Example 3, (E)-N-(2-oxo-2,3-dihydro-1H-benzo[d]imidazol-4-yl)-3-(2-(pyrrolidin-1-yl)-6-(trifluoromethyl)pyridin-3-yl)acrylamide] | 0.0157 | 52.56 | 13.2 | – | –
O=C(/C=C/c1ccc(C(F)(F)F)cc1N1CCCCC1)Nc1cccc2c1C[C@H](O)C2 [AMG8562] | – | – | – | cause hypothermia | –
O=C(/C=C/c1ccc(C(F)(F)F)nc1OCC1CC1)Nc1cccc2[nH]c(=O)[nH]c12 [Example 13, (E)-3-(2-(cyclopropylmethoxy)-6-(trifluoromethyl)pyridin-3-yl)-N-(2-oxo-2,3-dihydro-1H-benzo[d]imidazol-4-yl)acrylamide] | 0.0137 | 30.67 | 35.6 | – | –
CC(=O)Nc1nc2c(Oc3cc(-c4ccc(C(F)(F)F)cc4)ncn3)cccc2s1 [AMG 517] | – | – | – | – | 40.2
O=C(NCc1ccc(C(F)(F)F)nc1N1CCCC1)Nc1cccc2[nH]c(=O)[nH]c12 [Comparative Example 1, 1-(2-oxo-1,3-dihydrobenzimidazol-4-yl)-3-[[2-pyrrolidin-1-yl-6-(trifluoromethyl)-3-pyridyl]methyl]urea, reference compound] | 0.0185 | – | 2.3 | – | –
O=C(NCc1ccc(C(F)(F)F)nc1N1CCCCC1)Nc1cccc2[nH]c(=O)[nH]c12 [Comparative Example 3, 1-(2-oxo-1,3-dihydrobenzimidazol-4-yl)-3-[[2-(1-piperidyl)-6-(trifluoromethyl)-3-pyridyl]methyl]urea, reference compound] | 0.0135 | – | 3 | – | –
CC(C)COc1nc(C(F)(F)F)ccc1/C=C/C(=O)Nc1cccc2[nH]c(=O)[nH]c12 [Example 10, (E)-3-(2-isobutoxy-6-(trifluoromethyl)pyridin-3-yl)-N-(2-oxo-2,3-dihydro-1H-benzo[d]imidazol-4-yl)acrylamide] | 0.013 | 53.26 | 25.9 | – | –
O=C(/C=C/c1ccc(C(F)(F)F)nc1N1CCCCC1)Nc1cccc2[nH]c(=O)[nH]c12 [Example 4, (E)-N-(2-oxo-2,3-dihydro-1H-benzo[d]imidazol-4-yl)-3-(2-(piperidin-1-yl)-6-(trifluoromethyl)pyridin-3-yl)acrylamide] | 0.0113 | 49.86 | 12.5 | – | –
FC(F)(F)c1ccc(-c2cc(Nc3ccc4ncsc4c3)ncn2)c(NCC2CCCCC2)c1 [AMG7905] | – | – | – | cause hypothermia | –
CC(C)Oc1nc(C(F)(F)F)ccc1CNC(=O)Nc1cccc2[nH]c(=O)[nH]c12 [Comparative Example 2, 1-[[2-isopropoxy-6-(trifluoromethyl)-3-pyridyl]methyl]-3-(2-oxo-1,3-dihydrobenzimidazol-4-yl)urea, reference compound] | 0.0234 | – | 1 | – | –
CC(C)(C)C#Cc1nc(C(F)(F)F)ccc1/C=C/C(=O)Nc1cccc2[nH]c(=O)[nH]c12 [Example 39, (E)-3-(2-(3,3-dimethyl-1-butyn-1-yl)-6-(trifluoromethyl)pyridin-3-yl)-N-(2-oxo-2,3-dihydro-1H-benzo[d]imidazol-4-yl)acrylamide] | 0.0354 | 67.89 | – | – | –
CC(C)COc1nc(C(F)(F)F)ccc1CCC(=O)Nc1cccc2[nH]c(=O)[nH]c12 [Example 59, 3-(2-isobutoxy-6-(trifluoromethyl)pyridin-3-yl)-N-(2-oxo-2,3-dihydro-1H-benzo[d]imidazol-4-yl)propaneamide] | 0.0407 | 59.32 | – | – | –
O=C(/C=C/c1ccc(C(F)(F)F)nc1OC1CCC1)Nc1cccc2[nH]c(=O)[nH]c12 [Example 11, (E)-3-(2-cyclobutoxy-6-(trifluoromethyl)pyridin-3-yl)-N-(2-oxo-2,3-dihydro-1H-benzo[d]imidazol-4-yl)acrylamide] | 0.0378 | 88.23 | – | – | –
O=C(/C=C/c1sc(C2CC2)nc1-c1cccc(Cl)c1)Nc1cccc2[nH]c(=O)[nH]c12 [Example 56, (E)-3-(4-(3-chlorophenyl)-2-cyclopropylthiazol-5-yl)-N-(2-oxo-2,3-dihydro-1H-benzo[d]imidazol-4-yl)acrylamide] | 0.026 | 68.23 | – | – | –
